Test results reported in patent US20240025903A1, “Bicyclic Compounds and Uses Thereof for the Treatment of Diseases” (Athira Pharma, Inc., priority 2020, published 2024).

Tests used:
MDCK cells = experiment: Cell scattering behavior assay; type: cell-based; set-up: key: − indicates that the compound failed to significantly promote cell scattering behavior; + indicates maximum potency at or above 100 nM; ++ indicates maximum potency at or above 10 nM; +++ indicates maximum potency at or above 1 nM; ++++ indicates maximum potency at or above 0.1 nM; conditions: 5 ng/mL HGF, 24 hours, normalized particle count vs HGF alone
Description: MDCK cells were grown under normal conditions and observed to spontaneously form tight colonies as they proliferate. MDCK cells respond to HGF treatment by moving away from each other (scattering), which is quantified to assess the amount of HGF/MET activation in the cell population. In this experiment, MDCK cells were plated in a 96-well format, treated with HGF and exemplary compounds, fluorescently stained, imaged in large fields, and scattering behavior was quantified. Quantification was determined by analyzing the number of continuous groups of cells compared to the total stained area imaged (normalized particle counts).
MDCK cells were plated at low density in black-walled imaging plates and allowed to attach overnight at 37° C. and 5% CO2 in DMEM+10% FBS. Cells were then starved to 2 hours in DMEM without FBS (“starve media”). Samples containing exemplary compounds were prepared in DMEM without FBS and included 5 ng/mL HGF protein (“treatment media”). A control curve was also prepared for each plate using HGF concentrations of 0, 5, 10, and 20 ng/mL. Starve media was replaced with treatment media and cells were incubated for 24 hours at 37° C. and 5% CO2.
After incubation, cells were fixed by replacing treatment media with cold ethanol and incubating for 20 minutes at 4° C. Cells were then rehydrated by washing with PBS and then with stain solution (fluorescent wheat germ agglutinin; WGA488 at 20 μg/mL in PBS). Cells were incubated with stain solution 30 minutes at room temperature after which stain solution was replaced with fresh PBS.
Fields of cells were imaged using an iCyte high content imager in the green wavelength. Images were converted to binary and analyzed for particle size and particle count. For the purpose of analysis, an individual cell touching no other cells or separated colonies of cells were identified as particles, and particle counts were normalized by the total signal area to account for differences in cell number. […] Compound potency was assessed by statistical increase in normalized particle count compared to HGF treatment alone.

[1] = Turbidimetric solubility assay; type: physicochemical; conditions: aqueous buffer, kinetic from dmso stock, PBS, 37° C., absorbance 620 nm
Description: Aqueous solubility is a critical drug property that helps to predict bioavailability. Generally, compounds with aqueous solubility <100 μg/ml are poor drugs.
To assess a compound's solubility by turbidity, test compounds were first dissolved in organic solvent (DMSO) at a concentration of 10 mM. This compound solution was then diluted in aqueous solvent (PBS) in a dilution series from […] in a 96-well assay plate. Solutions were incubated at 37° C. for 2 hours.
In wells with test compounds over their solubility limit, the compound will precipitate, effectively blocking the passage of light and thus increasing the absorbance signal of UV light at a wavelength of 620 nm. Compounds were considered insoluble at a tested concentration if turbidity raises the absorbance more than 10% above control reads.

HGF/MET system = target: T1, HGF/MET system (Homo sapiens, UniProt P08581+P14210); experiment: Phospho-MET ELISA; type: cell-based; set-up: key: − indicates that the compound failed to significantly augment MET phosphorylation; + indicates maximum potency at or above 100 nM; ++ indicates maximum potency at or above 10 nM; +++ indicates maximum potency at or above 1 nM; ++++ indicates maximum potency at or above 0.1 nM; conditions: HEK293 cells, 1 ng/mL recombinant HGF, 15 minutes, pMET ELISA
T1 construct: HEK293 cells were prepared by passage into 6-well multi-plates; endogenous in cells; host or cells: HEK293
T1 sequence (P08581 308-1390 limits assumed): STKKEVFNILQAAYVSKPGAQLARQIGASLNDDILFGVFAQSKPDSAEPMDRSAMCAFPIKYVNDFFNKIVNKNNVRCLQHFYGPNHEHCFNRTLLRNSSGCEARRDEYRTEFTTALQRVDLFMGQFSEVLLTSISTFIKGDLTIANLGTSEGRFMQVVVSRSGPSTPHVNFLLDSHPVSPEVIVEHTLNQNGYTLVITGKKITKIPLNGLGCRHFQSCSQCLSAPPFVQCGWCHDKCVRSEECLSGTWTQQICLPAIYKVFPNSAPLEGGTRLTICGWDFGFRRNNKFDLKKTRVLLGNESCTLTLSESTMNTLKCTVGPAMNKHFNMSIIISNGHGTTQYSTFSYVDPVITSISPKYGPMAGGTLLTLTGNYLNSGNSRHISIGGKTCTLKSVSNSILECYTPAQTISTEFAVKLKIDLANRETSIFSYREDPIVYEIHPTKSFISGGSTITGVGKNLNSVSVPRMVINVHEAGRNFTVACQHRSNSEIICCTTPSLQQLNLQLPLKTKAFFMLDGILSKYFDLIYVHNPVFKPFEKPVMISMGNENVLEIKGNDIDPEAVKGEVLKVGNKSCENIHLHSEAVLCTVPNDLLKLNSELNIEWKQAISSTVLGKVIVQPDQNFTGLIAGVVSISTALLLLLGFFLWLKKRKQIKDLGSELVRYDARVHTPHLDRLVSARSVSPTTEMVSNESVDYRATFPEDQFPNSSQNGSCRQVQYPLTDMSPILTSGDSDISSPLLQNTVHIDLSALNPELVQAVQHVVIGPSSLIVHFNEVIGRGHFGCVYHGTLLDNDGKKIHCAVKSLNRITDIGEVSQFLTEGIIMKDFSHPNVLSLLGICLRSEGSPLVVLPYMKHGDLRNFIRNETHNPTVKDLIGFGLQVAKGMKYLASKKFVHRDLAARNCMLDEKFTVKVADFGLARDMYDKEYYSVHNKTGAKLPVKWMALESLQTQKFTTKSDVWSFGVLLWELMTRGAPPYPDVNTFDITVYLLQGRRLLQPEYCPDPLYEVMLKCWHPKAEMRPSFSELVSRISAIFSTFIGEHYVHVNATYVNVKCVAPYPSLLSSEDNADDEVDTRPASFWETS
T1 sequence (P14210 32-494 limits assumed): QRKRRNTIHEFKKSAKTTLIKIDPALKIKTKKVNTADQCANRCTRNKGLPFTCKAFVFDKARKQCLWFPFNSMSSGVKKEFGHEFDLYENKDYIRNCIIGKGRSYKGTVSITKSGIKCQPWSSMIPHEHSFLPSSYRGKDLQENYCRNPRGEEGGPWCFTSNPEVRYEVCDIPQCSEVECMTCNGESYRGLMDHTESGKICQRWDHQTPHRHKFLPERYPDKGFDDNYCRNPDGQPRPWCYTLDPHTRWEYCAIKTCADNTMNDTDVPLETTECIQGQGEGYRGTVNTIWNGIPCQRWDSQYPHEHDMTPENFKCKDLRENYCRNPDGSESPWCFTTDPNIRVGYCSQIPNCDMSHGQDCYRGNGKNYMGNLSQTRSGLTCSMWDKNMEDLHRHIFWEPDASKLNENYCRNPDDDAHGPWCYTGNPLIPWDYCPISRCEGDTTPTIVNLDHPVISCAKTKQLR
Description: Compounds were screened for potency towards the HGF/MET system using phospho-MET (pMET) ELISA kits (Cell Signaling). pMET levels were detected in samples having low (1 ng/mL) and high (10 ng/mL) concentrations of HGF.
HEK293 cells were prepared by passage into 6-well multi-plates and grown at 37° C. at 5% CO2 in DMEM+10% FBS until approximately 90% confluent. Cells were then starved for at least 8 hours in serum-free growth media.
Exemplary compounds were prepared in DMEM+0.1% FBS, diluted and added to treatment media with 1 ng/mL recombinant HGF protein (R&D Systems). Cells were incubated in triplicate at 37° C. and 5% CO2 for 15 minutes. Samples were then treated with 180 μL ice-cold RIPA (radioimmunoprecipitation assay) buffer and cells were lysed on ice for 15 minutes. Lysates were cleared by centrifugation at 16,000-g for 15 minutes and the supernatant was retained. Samples were normalized using a BCA assay of lysates to determine protein concentrations across the samples.
Between 50 and 100 μg total protein lysate was loaded into ELISA wells in pMET Sandwich ELISA kit (Cell Signaling Catalog #7227C), ensuring equal protein load in each well. The ELISA was processed according to manufacturer's instructions. After color developed, absorbance was read on an optical plate reader at 450 nm.
Potency measurements were determined using peak efficacy by scaling test compound dose treatments along a scale of 1-10 between 1 ng/mL and 10 ng/mL HGF doses according to the following formula: […]
where y is the normalized data-point, x is the raw data point, A is the mean HGF at 1 ng/mL, and B is the mean HGF at 10 ng/mL.

Row | SMILES | Potency (cell scattering) (MDCK cells) | solubility at 2 h [1] [µM] | Potency (augmentation of MET phosphorylation) (HGF/MET system)
1 | CC1C(=O)N(CCC2CCCC2)CC2N(Cc3ccc(F)cc3)CCC(=O)N12 (centres unmarked) [Compound 46, 8-(2-cyclopentylethyl)-1-(4-fluorobenzyl)-6-methylhexahydro-4H-pyrazino[1,2-c]pyrimidine-4,7(6H)-dione] | − | > 300 | −
2 | CC1C(=O)N(CC2CCC2)CC2N(C(=O)c3ccc(C(F)(F)F)cc3)CCC(=O)N12 (centres unmarked) [Compound 16] | − | > 300 | −
3 | CC1C(=O)N(CCO)CC2N(C(=O)c3ccc(OC(F)F)cc3)CCC(=O)N12 (centres unmarked) [Compound 34, 1-(4-(difluoromethoxy)benzoyl)-8-(2-hydroxyethyl)-6-methylhexahydro-4H-pyrazino[1,2-a]pyrimidine-4,7(6H)-dione] | − | > 300 | −
4 | CC1C(=O)N(CC2CCCO2)CC2N(C(=O)c3ccc(OC(F)F)cc3)CCC(=O)N12 (centres unmarked) [Compound 27] |  | > 100 | −
5 | CC(C)N1CC2N(C(=O)c3ccc(C(F)(F)F)cc3)CCC(=O)N2C(C)C1=O (centres unmarked) [Compound 24] | − | > 300 | −
6 | CC1C(=O)N(CCc2ccncc2)CC2N(C(=O)c3ccc(OC(F)F)cc3)CCC(=O)N12 (centres unmarked) [Compound 29] |  | > 300 | −
7 | C=CCCN1CC2N(C(=O)c3ccc(OC(F)F)cc3)CCC(=O)N2C(C)C1=O (centres unmarked) [Compound 18] | − | > 300 | −
8 | CCC(C)CN1CC2N(Cc3ccc(OC(F)F)cc3)CCC(=O)N2C(CC(N)=O)C1=O (centres unmarked) [Compound 50, 2-(1-(4-(difluoromethoxy)benzyl)-8-(2-methylbutyl)-4,7-dioxooctahydro-2H-pyrazino[1,2-a]pyrimidin-6-yl)acetamide] | − | > 300 | −
9 | CC1C(=O)N(CC2CCCC2)CC2N(C(=O)c3ccc(OC(F)F)cc3)CCC(=O)N12 (centres unmarked) [Compound 13] | − | > 300 | −
10 | CC1C(=O)N(CCC2CCC2)CC2N(Cc3ccc(OC(F)F)cc3)CCC(=O)N12 (centres unmarked) [Compound 40] |  | > 300 | −
11 | CCC(C)CN1CC2N(Cc3c[nH]c4ccccc34)CCC(=O)N2C(C)C1=O (centres unmarked) [Compound 44] | − | > 100 | −
12 | CC1C(=O)N(CCC2CCC2)CC2N(Cc3ccc(F)cc3)CCC(=O)N12 (centres unmarked) [Compound 45, 8-(2-cyclobutylethyl)-1-(4-fluorobenzyl)-6-methylhexahydro-4H-pyrazino[1,2-a]pyrimidine-4,7(6H)-dione] |  | > 300 | −
13 | CC(C)CN1CC2N(C(=O)c3ccc(C(F)(F)F)cc3)CCC(=O)N2C(C)C1=O (centres unmarked) [Compound 23] | − | > 300 | −
14 | CC1C(=O)N(CCc2ccccc2)CC2N(C(=O)c3ccc(OC(F)F)cc3)CCC(=O)N12 (centres unmarked) [Compound 28] | − | > 100 | −
15 | COCCCN1CC2N(C(=O)c3ccc(OC(F)F)cc3)CCC(=O)N2C(C)C1=O (centres unmarked) [Compound 33] | − | > 300 | −
16 | CC1C(=O)N(CCN)CC2N(C(=O)c3ccc(OC(F)F)cc3)CCC(=O)N12 (centres unmarked) [Compound 35, 8-(2-aminoethyl)-1-(4-(difluoromethoxy)benzoyl)-6-methylhexahydro-4H-pyrazino[1,2-a]pyrimidine-4,7(6H)-dione] | − | > 300 | −
17 | CCC(C)CN1CC2N(C(=O)c3ccc(Cl)cc3)CCC(=O)N2C(C)C1=O (centres unmarked) [Compound 10, 1-(4-chlorobenzoyl)-6-methyl-8-(2-methylbutyl)hexahydro-4H-pyrazino[1,2-a]pyrimidine-4,7(6H)-dione] | − | > 300 | −
18 | CC1C(=O)N(CCC2CC2)CC2N(C(=O)c3ccc(OC(F)F)cc3)CCC(=O)N12 (centres unmarked) [Compound 31] | − | > 300 | −
19 | COCCN1CC2N(C(=O)c3ccc(OC(F)F)cc3)CCC(=O)N2C(C)C1=O (centres unmarked) [Compound 32] | − | > 300 | −
20 | CC1C(=O)N(CC2CCCC2)CC2N(C(=O)c3ccc(C(F)(F)F)cc3)CCC(=O)N12 (centres unmarked) [Compound 15] | − | > 300 | −
21 | CC1C(=O)N(CCc2ccco2)CC2N(C(=O)c3ccc(OC(F)F)cc3)CCC(=O)N12 (centres unmarked) [Compound 25] | − | > 300 | −
22 | CCC(C)CN1CC2N(Cc3ccc(OC(F)F)cc3)CCC(=O)N2C(CF)C1=O (centres unmarked) [Compound 47, 1-(4-(difluoromethoxy)benzyl)-6-(fluoromethyl)-8-(2-methylbutyl)hexahydro-4H-pyrazino[1,2-a]pyrimidine-4,7(6H)-dione] |  | > 300 | −
23 | CCCCN1CC2N(C(=O)c3ccc(C(F)(F)F)cc3)CCC(=O)N2C(C)C1=O (centres unmarked) [Compound 21] | − | > 300 | −
24 | CC1C(=O)N(CCS(C)(=O)=O)CC2N(C(=O)c3ccc(OC(F)F)cc3)CCC(=O)N12 (centres unmarked) [Compound 36] | − | > 300 | −
25 | CCC(C)CN1CC2N(Cc3ccc(C(F)(F)F)cc3)CCC(=O)N2C(CF)C1=O (centres unmarked) [Compound 48, 6-(fluoromethyl)-8-(2-methylbutyl)-1-(4-(trifluoromethyl)benzyl)hexahydro-4H-pyrazino[1,2-a]pyrimidine-4,7(6H)-dione] |  | > 100 | −
26 | C=CCCN1CC2N(Cc3ccc(OC(F)F)cc3)CCC(=O)N2C(C)C1=O (centres unmarked) [Compound 39] | − | > 300 | −
27 | CC1C(=O)N(CCC2CCCC2)CC2N(Cc3ccc(OC(F)F)cc3)CCC(=O)N12 (centres unmarked) [Compound 38] |  | > 100 | −
